# Reference: US6225478A, “Iridoid derivatives and neovascularization inhibitors containing the same as active ingredient” (Tsumura & Co., priority 1999, dated 2001)
# Read-outs that look alike come from different tables or passages of the source.
# Assays:
# Format in all cases: cell-based
# [1] = test system: human umbilical-vein endothelial cells (HUVEC); assay: Cell Proliferation Assay (CPA) Test, HUVEC, MTT; details: M199 (2+) medium; for IC50: Homo sapiens, read-out: CPA (IC50 μg/ml)
# Method: (§1) Furthermore, the sample liquids of compounds used in the CPA and CMA tests were prepared in the manner described below. Firstly, after weighing out each compound, a calculated amount of DMSO was added. After dissolving the compound in the DMSO, phosphate buffered physiological saline (PBS (-)) was added to bring the sample concentration to 1 mg/ml in PBS (-). The amount of DMSO used to dissolve the compounds was adjusted in advance to that the concentration of DMSO at that time was 5%. The resulting liquids were diluted 10-fold with 5% DMSO-PBS (-) solution to prepare sample solutions having a concentration of 0.1 mg/ml. In the TFA test, 320 μl of the prepared 1 mg/ml sample solutions were removed followed by addition of 680 μl of PBS (-) to prepare samples having a concentration of […]. Moreover, 100 μl of this solution was removed followed by addition of 900 μl of PBS (-) to dilute 10-fold and prepare samples having a concentration of 1 μg/ml. P [Cell Proliferation Assay (CPA) Test]
# 100 μl of the 7th subculture obtained from first generation human umbilical-vein endothelial cells (HUVEC) were disseminated in the wells (N=3) of a 96-well plate (Iwaki, Cat. #4860-010) at a cell concentration of 5×10^4 cells/ml. M-199 medium containing +20% FCS, 10 ng/ml of b-FGF and 10 ng/ml of EGF (abbreviated as "M199 (2+)") was used for the medium.
# After culturing for 24 hours at 37° C. in the presence of 5% CO2 under the above conditions, 20 μl/well of MTT solution (solution containing 5 mg/ml of PBS (-)) were added to the control well followed by accurately culturing for 4 hours at 37° C. in the presence of 5% CO2. Following completion of culturing, 100 μl/well of a stop solution (0.001 N aqueous HCl solution containing 10% SDS) were added. On the other hand, 10 μl/well of sample solutions at concentrations of 1 mg/ml and 0.1 mg/ml were added to the other wells.
# After culturing for 24 hours at 37° C. in the presence of 5% CO2, the medium was replaced and 100 μl/well of M199 (2+) were added. The samples were also replaced in each well at this time.
# Moreover, after additionally culturing for 48 hours at 37° C. in the presence of 5% CO2, 20 μl/well of MTT solution were added to the wells containing sample and the control well followed by accurately culturing for 4 hours at 37° C. and adding 100 μl/well of stop solution.
# [2] = test system: human umbilical-vein endothelial cells (HUVEC); assay: Cell Migration Assay (CMA) Test, HUVEC (% relative to control); details: 24 hours, 60% or less = remarkable inhibition; for activity at 1 µg/mL / activity at 10 µg/mL: Homo sapiens, HUVEC, read-out: CMA (% relative to control)
# Method: as §1
# After disseminating the 7th subculture of HUVEC obtained from the first generation in the same manner as above at 4 ml/well (3.0×10^5 cells/well) in a collagen-coated 6-well plate (NUNC), the cells were cultured for 48 hours at 37° C. in the presence of 5% CO2. The cells reached nearly a completely confluent state as a result of this culturing.
# A double-edged, disposable razor blade was divided into four sections, of which one of those sections was pinched between a pair of forceps. Using this piece of razor blade, the cell surface in the above confluent state was scraped off. Two areas of the cell surface were scraped off in each well.
# After washing the surface of the wells from which the cells had been scraped off with medium, 4.0 ml of fresh M199 (2+) medium were added followed by addition of 40 μl or 4 μl of sample solution (1 mg/ml). The cells were cultured for 24 hours at 37° C. in the presence of 5% CO2. After discarding the culture liquid, the cells were fixed for 30 minutes with methanol. Next, after staining the cells for 4 hours with Giemsa stain, the plates were washed with tap water and air dried.
# Measurement of cell migration was performed by microscopically counting the number of cells that had newly migrated within the range of a 1 mm×1 mm block. […] The total number of cells counted in blocks 1 through 5 were then totaled to determine the overall total number of cells. Four fields were counted for each well.
# Evaluation was performed determining the cell migration (%) according to the following formula.
# Cell migration rate=number of migrating cells to which sample was added×100/number of migrating of control (+)
# Control (+) indicates the number of migrating cells in the control well containing M199 (2+).
# [3] = test system: human umbilical-vein endothelial cells (HUVEC); assay: Tube Formation Assay (TFA) Test, HUVEC in collagen gel; details: 20 hours, 40% or less judged remarkable; for inhibition at 1 µg/mL / inhibition at 10 µg/mL: Homo sapiens, HUVEC, read-out: TFA (inhibition rate, %)
# Procedure, shortened: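 HUVEC (7th subculture, 1×10^5 cells/ml) attached to collagen gel for 2 h at 37 °C, given sample and overlaid with collagen, then cultured 20 h at 37 °C, 5% CO2 in M-199 with 20% FCS, 30 ng/ml b-FGF and 0.1 μM PMA. Tube length measured by image analysis; % inhibition relative to positive and negative controls.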
Structure (SMILES),IC50 [1] [µg/mL],activity at 1 µg/mL ([2]; 1 μg/ml) [%],activity at 10 µg/mL ([2]; 10 μg/ml) [%],"inhibition at 1 µg/mL ([3]; 20 h, 1 μg/ml) [%]","inhibition at 10 µg/mL ([3]; 20 h, 10 μg/ml) [%]",CPA (IC50 μg/ml) [1] [µg/mL],CMA (% relative to control) ([2]; 1 μg/ml) [%],CMA (% relative to control) ([2]; 10 μg/ml) [%],"TFA (inhibition rate, %) ([3]; 1 μg/ml) [%]","TFA (inhibition rate, %) ([3]; 10 μg/ml) [%]",inhibition at 1 µg/mL ([3]; 1 μg/ml) [%],inhibition at 10 µg/mL ([3]; 10 μg/ml) [%]
"CNC(=O)O[C@@H]1OC=C(C(=O)OC)[C@H]2C[C@@H]3O[C@]3(CCl)C12 (stereo in doubt) [compound 51, (1S,4aS,6S,7R,7aR)-6,7-epoxy-7-(chloromethyl)-1-(methylcarbamoyloxy)-1,4a,5,6,7,7a-hexahydrocyclopenta [c]pyrane-4-carboxylic acid methylester]",> 100,102,101,19.1,-1.4,–,–,–,–,–,–,–
"COC(=O)C1=CO[C@@H](OC(=O)N2CCOCC2)[C@@H]2[C@@H]1C[C@@H]1O[C@]21C [compound 38, (1S,4aS,6S,7R,7aR)-6,7-epoxy-1,4a,5,6,7,7a-hexahydro-7-methyl-1-(morpholinocarbonyloxy) cyclopenta [c] pyrane-4-carboxylic acid methylester]",> 100,92.3,61.8,15.3,-10,–,–,–,–,–,–,–
"CNC(=O)O[C@@H]1OC=C(C(=O)NCc2ccccc2)[C@H]2C[C@@H]3O[C@]3(C)[C@H]12 [compound 27, (1S,4aS,6S,7R,7aR)-6,7-epoxy-1,4a,5,6,7,7a-hexahydro-7-methyl-1-(methylcarbamoyloxy) cyclopenta [c]-pyrane-4-carboxylic acid benzylamide]",> 100,94.5,103,29.1,32.7,–,–,–,–,–,–,–
"CNC(=O)O[C@@H]1OC=C(C(=O)OCCc2ccccc2)[C@H]2C[C@@H]3O[C@]3(C)[C@H]12 [compound 12, (1S,4aS,6S,7R,7aR)-6,7-epoxy-1,4a,5,6,7,7a-hexahydro-7-methyl-1-(methylcarbamoyloxy) cyclopenta [c]-pyrane-4-carboxylic acid phenylethylester]",> 100,101,89.8,32.7,32.5,–,–,–,–,–,–,–
"C=CCOC(=O)C1=CO[C@@H](OC(=O)NC)[C@@H]2[C@@H]1C[C@@H]1O[C@]21C [compound 9, (1S,4aS,6S,7R,7aR)-6,7-epoxy-1,4a,5,6,7,7a-hexahydro-7-methyl-1-(methylcarbamoyloxy) cyclopenta [c]-pyrane-4-carboxylic acid allylester]",> 100,111,116,11,16.5,–,–,–,–,–,–,–
"CNC(=O)OC[C@@H]1[C@H](C)CC[C@@H]1C1(COC(=O)NC)CO1 (stereo partly drawn) [Compound 58, 2-[(1S,2R,3R)-2-(methylcarbamoyloxy)methyl-3-methylcyclopento-1-yl]-2,3-epoxy-propane-1-methylcarbamate]",–,–,–,–,–,> 100.0,121.6,97.0,20.6,22.3,–,–
"C=CCCCOC(=O)C1=CO[C@@H](OC(=O)NC)[C@@H]2[C@@H]1C[C@@H]1O[C@]21C [compound 7, (1S,4aS,6S,7R,7aR)-6,7-epoxy-1,4a,5,6,7,7a-hexahydro-7-methyl-1-(methylcarbamoyloxy) cyclopenta [c]-pyrane-4-carboxylic acid 4-pentenylester]",90.6,82.6,79.7,25.8,18.2,–,–,–,–,–,–,–
"CNC(=O)O[C@@H]1OC=C(C(=O)OC)[C@H]2C[C@@H]3O[C@]3(COC(C)=O)[C@@H]12 [compound 46, (1S,4aS,6S. 7R,7aR)-7-(acetoxymethyl)-6,7-epoxy-1-(methylcarbamoyloxy)-1,4a,5,6,7,7a-hexahydro [c] pyrane-4-carboxylic acid methylester]",> 100,105,103,-0.8,1.5,–,–,–,–,–,–,–
"COC(=O)C1=CO[C@@H](OC(=O)NC(=O)c2ccccc2)[C@@H]2[C@@H]1C[C@@H]1O[C@]21C [compound 41, (1S,4aS,6S,7R,7aR)-1-(benzoylcarbamoyloxy)-6,7-epoxy-1,4a,5,6,7,7a-hexahydro-7-methylcyclopenta [c] pyrane-4-carboxylic acid methylester]",56.1,102,95,46.7,37.6,–,–,–,–,–,–,–
"CCOC(=O)C1=CO[C@@H](OC(=O)NC)[C@@H]2[C@@H]1C[C@@H]1O[C@]21C [compound 4, (1S,4aS,6S,7R,7aR)-6,7-epoxy-1,4a,5,6,7,7a-hexahydro-7-methyl-1-(methylcarbamoyloxy) cyclopenta [c]-pyrane-4-carboxylic acid ethylester]",> 100,70.8,53,40.5,5.6,–,–,–,–,–,–,–
"CCN(CC)C(=O)C1=CO[C@@H](OC(=O)NC)[C@@H]2[C@@H]1C[C@@H]1O[C@]21C [compound 19, (1S,4aS,6S,7R,7aR)-6,7-epoxy-1,4a,5,6,7,7a-hexahydro-7-methyl-1-(methylcarbamoyloxy) cyclopenta [c]-pyrane-4-carboxylic acid diethylamide]",> 100,96.4,93.5,23.6,21.3,–,–,–,–,–,–,–
"CCCCCC[C@]12O[C@H]1C[C@@H]1C(C(=O)OC)=CO[C@@H](OC(=O)NC)[C@@H]12 [compound 44, (1S,4aS,6S,7R,7aR)-6. 7-epoxy-7-n-hexyl-1,4a,5,6,7,7a-hexahydro-1-(methylcarbamoyloxy) cyclopenta [c] pyrane-4-carboxylic acid methy:lester]",> 100,99.4,98.2,69.7,71.4,–,–,–,–,–,–,–
"COC(=O)C1=CO[C@@H](OC(=O)NCCCl)[C@@H]2[C@@H]1C[C@@H]1O[C@]21C [compound 32, (1S,4aS,6S,7R,7aR)-1-[(2-chloroethyl)carbamoyloxy]-6,7-epoxy-1,4a,5,6,7,7a-hexahydro-7-methylcyclopenta [c] pyrane-4-carboxylic acid methylester]",> 100,93,97,–,–,–,–,–,–,–,68.8,30
